Data set [1] in a line: Human microsome stability assay. Format: in vitro ADME. To be noted: 1 μM compound, 0.5 mg/mL microsomal protein, 37° C.; detection limit 6.15 mL/min/kg. As for the experimental part: Human Microsome Stability Assay The human microsomal stability assay is used for early assessment of metabolic stability of a test compound in human liver microsomes. Human liver microsomes (Cat. […] The reactions were initiated by adding NADPH regenerating system. […] Following precipitation and centrifugation, the amount of compound remaining in the samples were determined by LC-MS/MS. Controls of no NADPH regenerating system at zero and 30 minutes were also prepared and analyzed.

The subject of another data set is HBeAg. In words: microbe, parasite or virus in culture. Format: cell-based, HBV. To be noted: Hepatitis B virus, read-out: HBeAg IC50.
Data set [2] has as its system primary human hepatocyte (PHH). In words: Cytotoxicity in PHH natural infection assay (Cell Counting Kit-8). Format: cell-based. To be noted: therapeutic index; CC50 by CCK8 in PHH over HBsAg IC50. How it is done:
Detailed procedures regarding primary human hepatocyte (PHH) HBV natural infection assay are described as below. One tube of frozen PHH (10 million cells) was thawed in 37° C. water bath and then transferred to 20 mL of PHH thawing medium (Sigma, InVitroGRO HT Medium, Cat. 503319) with gently mixing. The cells were then centrifuged at […] for 5 min, the supernatant was discarded and the tube was refilled with 25 mL of PHH plating medium (Sigma, InVitroGRO CP Medium, Cat. 503317). The tube was shaken very gently to re-suspend all cells, and then 50 μl of cells were transferred to each well of a 384-well collagen I coated plate with appropriate liquid handling equipment, e.g. Integra VIAFLO384 or Agilent Bravo. The cells were then cultured for 24 hours in a cell incubator. For HBV infection, after PHH attachment on the culture plate, the plating medium was removed and replenished with PHH culture medium containing HBV virus. The PHH culture medium was prepared with Dulbecco's Modified Eagle Medium (DMEM)/F12 (1:1 in volume ratio) containing 10% fetal bovine serum (Gibco, Cat.10099141), 5 ng/mL human epidermal growth factor (Gibco, Cat.PHG031 IL), 20 ng/mL dexamethasone (Sigma, Cat.D4902-100 mg), 250 ng/mL human recombinant insulin (Gibco, Cat.41400045) and 100 U/mL penicillin. HBV virus at 200 genome equivalent (GE) per cell with 4% PEG8000 (Sigma, Cat.P1458) containing culture medium were added to the PHH culture medium for infection. The cells were then cultured for 24 hours in cell incubator. Then the cell culture supernatant was removed. The HBV-infected PHH were cultured with sandwich culture method with PHH culture medium containing 1% DMSO and 0.25 mg/mL matrix gel for 72 hours. The supernatant was then refreshed with PHH culture medium containing different concentrations of testing compounds for two times with 72-hour interval. At the end of treatment, the supernatant was collected for viral markers measurements, including HBsAg, HBeAg, HBV DNA and cytotoxicity. HBsAg and HBeAg were detected using alphalisa method using their specific antibodies. For HBV DNA detection, HBV DNA Quantitative Fluorescence Diagnostic Kit (Sansure Biotech Inc.) was used following the manufacture's protocol. Cytotoxicity was determined using Cell Counting Kit-8 (CCK8, Dojindo Molecular Technologies, Inc.).
A general note: Tetrazolium dyes change colour on reduction, which living cells bring about.

The test system of a further data set is HBsAg. In words: microbe, parasite or virus in culture. Format: cell-based, HBV. Conditions: Hepatitis B virus, read-out: HBsAg IC50.

pIC50: −log10 of the molar value.

The values that follow come from patent US20230278997A1, “BICYCLO[1.1.1]PENTANE COMPOUNDS FOR THE TREATMENT AND PROPHYLAXIS OF HEPATITIS B VIRUS INFECTION” (Hoffmann-La Roche Inc., priority 2020, published 2023).

By pIC50 is commonly meant −log10 of the IC50, conventionally taken in molar units.

With `CS(=O)(=O)C1(c2nsc(C(=O)NC34CC(c5nc(-c6cccc(Cl)c6)cs5)(C3)C4)n2)CC1` [Example 4, N-[3-[4-(3-chlorophenyl)thiazol-2-yl]-1-bicyclo[1.1.1]pentanyl]-3-(1-methylsulfonylcyclopropyl)-1,2,4-thiadiazole-5-carboxamide], the “Clearance of human microsome” value in data set [1] is at most 0.369 L/h/kg. Also, the pIC50 is 6.92 in the data set with HBeAg and 6.77 in the data set on HBsAg. Further, the “TI (CC50/IC50 HBsAg)” value in data set [2] came out at 29.65.

Take `CS(=O)(=O)C1(c2ncc(C(=O)NC34CC(c5nc(-c6ccc(Cl)cc6)cs5)(C3)C4)o2)CC1` [Example 6, N-[3-[4-(4-chlorophenyl)thiazol-2-yl]-1-bicyclo[1.1.1]pentanyl]-2-(1-methylsulfonylcyclopropyl)oxazole-5-carboxamide]: the “Clearance of human microsome” value in data set [1] was at most 0.369 L/h/kg. The pIC50 was 7.30 in the data set on HBeAg and 7.10 in the data set with HBsAg. For the same molecule, the “TI (CC50/IC50 HBsAg)” value in data set [2] turned out to be 81.63.

On to `CS(=O)(=O)C1(c2ccc(C(=O)NC34CC(c5nc(-c6ccc(Cl)c(Cl)c6)cs5)(C3)C4)o2)CC1` [Example 8, N-[3-[4-(3,4-dichlorophenyl)thiazol-2-yl]-1-bicyclo[1.1.1]pentanyl]-5-(1-methylsulfonylcyclopropyl)furan-2-carboxamide], for which the “Clearance of human microsome” value in data set [1] was at most 0.369 L/h/kg. Moreover, the pIC50 is 6.96 in the data set on HBeAg and 6.80 in the data set with HBsAg. Besides, the “TI (CC50/IC50 HBsAg)” value in data set [2] worked out at 16.69.

Consider `CS(=O)(=O)C1(c2ccc(C(=O)NC34CC(c5nc(-c6ccc(Cl)cn6)cs5)(C3)C4)o2)CC1` [Example 10, N-[3-[4-(5-chloro-2-pyridyl)thiazol-2-yl]-1-bicyclo[1.1.1]pentanyl]-5-(1-methylsulfonylcyclopropyl)furan-2-carboxamide], for which, in data set [1], the “Clearance of human microsome” value is at most 0.369 L/h/kg. For the same molecule, the pIC50 with HBeAg was 6.70; with HBsAg, 6.55. Also, the “TI (CC50/IC50 HBsAg)” value in data set [2] was found to be 31.11.

Consider `CS(=O)(=O)C1(c2ccc(C(=O)NC34CC(c5nc(-c6ccccc6)cs5)(C3)C4)o2)CC1` [Example 13, 5-(1-methylsulfonylcyclopropyl)-N-[3-(4-phenylthiazol-2-yl)-1-bicyclo[1.1.1]pentanyl]furan-2-carboxamide], for which the “Clearance of human microsome” value in data set [1] was at most 0.369 L/h/kg. Further, the pIC50 with HBeAg was 6.25; with HBsAg, 6.11. In data set [2], the “TI (CC50/IC50 HBsAg)” value is listed as 12.38.

For `CS(=O)(=O)C1(c2ccc(C(=O)NC34CC(c5nc(-c6ccc(Cl)cc6)ns5)(C3)C4)o2)CC1` [Example 18, N-[3-[3-(4-chlorophenyl)-1,2,4-thiadiazol-5-yl]-1-bicyclo[1.1.1]pentanyl]-5-(1-methylsulfonylcyclopropyl)furan-2-carboxamide], the “Clearance of human microsome” value in data set [1] worked out at 0.528 L/h/kg. In addition, the pIC50 is 6.92 in the data set on HBeAg and 6.72 in the data set with HBsAg. The “TI (CC50/IC50 HBsAg)” value in data set [2] is recorded as 39.05.

With `CS(=O)(=O)C1(c2ccc(C(=O)NC34CC(c5ncc(-c6ccc(Cl)cc6)s5)(C3)C4)o2)CC1` [Example 19, N-[3-[5-(4-chlorophenyl)thiazol-2-yl]-1-bicyclo[1.1.1]pentanyl]-5-(1-methylsulfonylcyclopropyl)furan-2-carboxamide], in data set [1], the “Clearance of human microsome” value is at most 0.369 L/h/kg. The negative-log IC50 (pIC50) is 6.80 with HBeAg and 6.68 in the data set with HBsAg. Moreover, the “TI (CC50/IC50 HBsAg)” value in data set [2] is listed as above 47.62.

For `CS(=O)(=O)C1(c2ccc(C(=O)NC34CC(c5ncc(-c6ccc(Cl)c(Cl)c6)s5)(C3)C4)o2)CC1` [Example 21, N-[3-[5-(3,4-dichlorophenyl)thiazol-2-yl]-1-bicyclo[1.1.1]pentanyl]-5-(1-methylsulfonylcyclopropyl)furan-2-carboxamide], in data set [1], the “Clearance of human microsome” value worked out at 0.4 L/h/kg. Moreover, the pIC50 in the data set on HBeAg and in the data set with HBsAg was 7.15 each time. Moreover, in data set [2], the “TI (CC50/IC50 HBsAg)” value is on record as 29.86.
